Measured values from patent US8354394B2, “Diuretics” (Merck Sharp & Dohme Corp., priority 2009, dated 2013).

System: beagle dogs
Test: canine telemetry protocol for blood pressure reduction efficacy
Type: in vivo
Conditions: male beagle dogs, 3 mg/kg oral gavage
Experimental: Compounds of the invention were evaluated for blood pressure reduction efficacy using the following canine telemetry protocol.
Male beagle dogs (approximately 1-3 years old) with a body weight of between 10 and 16 kg were surgically implanted with DSI radiotelemetry devices (model: TL11M2-D70-PCT). Briefly, under an inhalant anesthesia, isoflurane/oxygen mixture (1-3.5%/to effect), the body of the telemetry device was positioned and secured intra-abdominally. Subsequently, the arterial catheter of the telemetry device was passed subcutaneously to the inguinal area and introduced into the femoral artery and advanced to the level of the descending aorta. The catheter was secured with 2-0 silk ligatures. The muscle and underlying fascia was closed over the catheter using absorbable suture and the skin was closed using non-absorbable suture. The animals were allowed a minimum recovery period of 2 weeks between surgery and the evaluation of test compounds.
Compound evaluation consisted of a 3 day paradigm at a 3 mg/kg dose. On the first day, no compounds were administered during a 24 hour period of baseline data collection. Blood pressure and heart rate data were collected continuously for one minute periods at 10 minute intervals. On the days of compound administration half the animals received test article with the other half receiving the vehicle used for compound formulation. All test materials were administered by oral gavage in a volume of 1 mL/kg. Data are expressed either as raw values (mm Hg or beats per minute) or as the change from baseline (average value for about 12 hours in low activity period prior to dosing). Change is SBP (systolic blood pressure) and PP (pulse pressure) over time is shown below: […]

Row | SMILES | ΔPP (pulse pressure, change from baseline) 1-6 h | ΔSBP (systolic blood pressure, change from baseline) 1-6 h | ΔPP (pulse pressure, change from baseline) 6-12 h | ΔSBP (systolic blood pressure, change from baseline) 6-12 h | ΔPP (pulse pressure, change from baseline) 12-18 h | ΔSBP (systolic blood pressure, change from baseline) 12-18 h
1 | Cc1ncc2c(c1OC(=O)CCCC(C)O/N=[N+](\[O-])N(C)C(C)(C)C)CO[C@H]2c1ccc(Cl)cc1 (stereo partly drawn) [Example 14, (3S)-3-(4-Chlorophenyl)-6-methyl-1,3-dihydrofuro[3,4-c]pyridin-7-yl 5-({[(1Z)-2-tert-butyl-2-methyl-1-oxido-1λ^5-diazan-1-ylidene]amino}oxy)hexanoate] | −18 mm Hg | −21 mm Hg | −9 mm Hg | −8 mm Hg | −3 mm Hg | 3 mm Hg
2 | Cc1ncc2c(c1OC(=O)[C@H]1CC[C@@H](O/N=[N+](\[O-])N(C)C(C)(C)C)CC1)CO[C@H]2c1ccc(Cl)cc1 [Example 5, (3S)-3-(4-Chlorophenyl)-6-methyl-1,3-dihydrofuro[3,4-c]pyridin-7-yl cis-4-({[(1Z)-2-tert-butyl-2-methyl-1-oxidohydrazono]amino}oxy)cyclohexanecarboxylate] | −10 mm Hg | −11 mm Hg | −3 mm Hg | −2 mm Hg | 1 mm Hg | 2 mm Hg
3 | Cc1ncc2c(c1OC(=O)CCC(C)CO/N=[N+](\[O-])N(C)C(C)(C)C)CO[C@H]2c1ccc(Cl)cc1 (stereo partly drawn) [Example 13, (3S)-3-(4-Chlorophenyl)-6-methyl-1,3-dihydrofuro[3,4-c]pyridin-7-yl 5-({[(1Z)-2-tert-butyl-2-methyl-1-oxido-1λ^5-diazan-1-ylidene]amino}oxy)-4-methylpentanoate] | −22 mm Hg | −30 mm Hg | −11 mm Hg | −15 mm Hg | −6 mm Hg | −4 mm Hg
4 | Cc1ncc2c(c1OC(=O)[C@H]1CC[C@H](O/N=[N+](\[O-])N(C)C(C)(C)C)CC1)CO[C@H]2c1ccc(Cl)cc1 [Example 6, (3S)-3-(4-Chlorophenyl)-6-methyl-1,3-dihydrofuro[3,4-c]pyridin-7-yl trans-4-({[(1Z)-2-tert-butyl-2-methyl-1-oxidohydrazono]amino}oxy)cyclohexanecarboxylate] | −16 mm Hg | −16 mm Hg | −7 mm Hg | −6 mm Hg | −3 mm Hg | −1 mm Hg
5 | Cc1ncc2c(c1OC(=O)O[C@@H](C)CCCCO/N=[N+](\[O-])N(C)C(C)(C)C)CO[C@H]2c1ccc(Cl)cc1 [Example 25, (2S)-6-({[(1Z)-2-tert-butyl-2-methyl-1-oxido-1λ^5-diazan-1-ylidene]amino}oxy)hexan-2-yl (3 S) 3-(4-chlorophenyl)-6-methyl-1,3-dihydrofuro[3,4-c]pyridin-7-yl carbonate] | −12 mm Hg | −14 mm Hg | −7 mm Hg | −7 mm Hg | −4 mm Hg | 0 mm Hg
6 | Cc1ncc2c(c1OC(=O)CCCCO/N=[N+](\[O-])N(C)C(C)(C)C)CO[C@H]2c1ccc(Cl)cc1 [Example 8, (3S)-3-(4-Chlorophenyl)-6-methyl-1,3-dihydrofuro[3,4-c]pyridin-7-yl 5-({[(1Z)-2-tert-butyl-2-methyl-1-oxido-1λ^5-diazan-1-ylidene]amino}oxy)pentanoate] | −12 mm Hg | −15 mm Hg | −8 mm Hg | −12 mm Hg | −4 mm Hg | −2 mm Hg
